According to PubChem BioAssay (NCI):
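Each compound was tested at five concentrations against cells in 96-well plates for 48 hours. TGI marks complete inhibition of growth.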

Assays:
Experiment in all cases: NCI-60 cell line screen, 48 h
COLO 205 colon = tested on: COLO 205 colon
LOX IMVI melanoma = tested on: LOX IMVI melanoma
SNB-78 CNS = tested on: SNB-78 CNS
SN12C renal = tested on: SN12C renal
CAKI-1 renal = tested on: CAKI-1 renal
786-0 renal = tested on: 786-0 renal
MALME-3M melanoma = tested on: MALME-3M melanoma
SK-MEL-2 melanoma = tested on: SK-MEL-2 melanoma
HT29 colon = tested on: HT29 colon
DLD-1 colon = tested on: DLD-1 colon
SF-539 CNS = tested on: SF-539 CNS
HL-60(TB) leukemia = tested on: HL-60(TB) leukemia
SF-295 CNS = tested on: SF-295 CNS
MOLT-4 leukemia = tested on: MOLT-4 leukemia
UO-31 renal = tested on: UO-31 renal
KM12 colon = tested on: KM12 colon
SK-OV-3 ovarian = tested on: SK-OV-3 ovarian
HCT-15 colon = tested on: HCT-15 colon
SR leukemia = tested on: SR leukemia
NCI-H23 lung = tested on: NCI-H23 lung
CCRF-CEM leukemia = tested on: CCRF-CEM leukemia
IGROV1 ovarian = tested on: IGROV1 ovarian
HOP-18 NSCLC = tested on: HOP-18 NSCLC
SNB-75 CNS = tested on: SNB-75 CNS
M19-MEL melanoma = tested on: M19-MEL melanoma
HOP-92 NSCLC = tested on: HOP-92 NSCLC
A498 renal = tested on: A498 renal
HCC-2998 colon = tested on: HCC-2998 colon
HCT-116 colon = tested on: HCT-116 colon
A549 NSCLC = tested on: A549 NSCLC
SK-MEL-28 melanoma = tested on: SK-MEL-28 melanoma
OVCAR-5 ovarian = tested on: OVCAR-5 ovarian
OVCAR-8 ovarian = tested on: OVCAR-8 ovarian
SK-MEL-5 melanoma = tested on: SK-MEL-5 melanoma
EKVX NSCLC = tested on: EKVX NSCLC
RPMI-8226 leukemia = tested on: RPMI-8226 leukemia
TK-10 renal = tested on: TK-10 renal
SF-268 CNS = tested on: SF-268 CNS
ACHN renal = tested on: ACHN renal
NCI-H522 lung = tested on: NCI-H522 lung
M14 melanoma = tested on: M14 melanoma
NCI-H460 lung = tested on: NCI-H460 lung
SW-620 colon = tested on: SW-620 colon
DMS 114 small cell lung = tested on: DMS 114 small cell lung
K-562 leukemia = tested on: K-562 leukemia
UACC-257 melanoma = tested on: UACC-257 melanoma
LXFL 529 NSCLC = tested on: LXFL 529 NSCLC
OVCAR-4 ovarian = tested on: OVCAR-4 ovarian
U251 CNS = tested on: U251 CNS
NCI-H226 lung = tested on: NCI-H226 lung
UACC-62 melanoma = tested on: UACC-62 melanoma
SNB-19 CNS = tested on: SNB-19 CNS
DMS 273 small cell lung = tested on: DMS 273 small cell lung
RXF 393 renal = tested on: RXF 393 renal
HOP-62 NSCLC = tested on: HOP-62 NSCLC
KM20L2 colon = tested on: KM20L2 colon
OVCAR-3 ovarian = tested on: OVCAR-3 ovarian

Structure (SMILES): COc1ccc(/C(=N/O)C(c2ccc(OC)cc2)C2C(=O)Oc3ccccc32)cc1 (configuration not stated)
- TGI (COLO 205 colon): 7.05 µM
- TGI (LOX IMVI melanoma): > 100 µM
- TGI (SNB-78 CNS): > 100 µM
- TGI (SN12C renal): > 100 µM
- TGI (CAKI-1 renal): > 100 µM
- TGI (786-0 renal): > 100 µM
- TGI (MALME-3M melanoma): > 100 µM
- TGI (SK-MEL-2 melanoma): > 100 µM
- TGI (HT29 colon): > 100 µM
- TGI (DLD-1 colon): > 100 µM
- TGI (SF-539 CNS): > 100 µM
- TGI (HL-60(TB) leukemia): > 100 µM
- TGI (SF-295 CNS): 11.7 µM
- TGI (MOLT-4 leukemia): > 100 µM
- TGI (UO-31 renal): > 100 µM
- TGI (KM12 colon): > 100 µM
- TGI (SK-OV-3 ovarian): > 100 µM
- TGI (HCT-15 colon): > 100 µM
- TGI (SR leukemia): > 100 µM
- TGI (NCI-H23 lung): > 100 µM
- TGI (CCRF-CEM leukemia): > 100 µM
- TGI (IGROV1 ovarian): > 100 µM
- TGI (HOP-18 NSCLC): > 100 µM
- TGI (SNB-75 CNS): > 100 µM
- TGI (M19-MEL melanoma): > 100 µM
- TGI (HOP-92 NSCLC): 80.6 µM
- TGI (A498 renal): > 100 µM
- TGI (HCC-2998 colon): > 100 µM
- TGI (HCT-116 colon): > 100 µM
- TGI (A549 NSCLC): > 100 µM
- TGI (SK-MEL-28 melanoma): > 100 µM
- TGI (OVCAR-5 ovarian): > 100 µM
- TGI (OVCAR-8 ovarian): > 100 µM
- TGI (SK-MEL-5 melanoma): 68.2 µM
- TGI (EKVX NSCLC): > 100 µM
- TGI (RPMI-8226 leukemia): > 100 µM
- TGI (TK-10 renal): > 100 µM
- TGI (SF-268 CNS): > 100 µM
- TGI (ACHN renal): > 100 µM
- TGI (NCI-H522 lung): > 100 µM
- TGI (M14 melanoma): > 100 µM
- TGI (NCI-H460 lung): > 100 µM
- TGI (SW-620 colon): > 100 µM
- TGI (DMS 114 small cell lung): 79.9 µM
- TGI (K-562 leukemia): > 100 µM
- TGI (UACC-257 melanoma): > 100 µM
- TGI (LXFL 529 NSCLC): > 100 µM
- TGI (OVCAR-4 ovarian): > 100 µM
- TGI (U251 CNS): > 100 µM
- TGI (NCI-H226 lung): > 100 µM
- TGI (UACC-62 melanoma): > 100 µM

Structure (SMILES): CCCCCC(=O)N[C@H]1CCc2cc(O)c(O)c(O)c2-c2ccc(SC)c(=O)cc21
- TGI (COLO 205 colon): 44.5 µM
- TGI (LOX IMVI melanoma): 44.3 µM
- TGI (SNB-78 CNS): > 100 µM
- TGI (SN12C renal): 42.7 µM
- TGI (SNB-19 CNS): > 100 µM
- TGI (CAKI-1 renal): 91.6 µM
- TGI (786-0 renal): > 100 µM
- TGI (MALME-3M melanoma): > 100 µM
- TGI (SK-MEL-2 melanoma): 72.4 µM
- TGI (HT29 colon): > 87.1 µM
- TGI (DMS 273 small cell lung): > 100 µM
- TGI (DLD-1 colon): 40.6 µM
- TGI (SF-539 CNS): 45.3 µM
- TGI (HL-60(TB) leukemia): 51.2 µM
- TGI (RXF 393 renal): > 100 µM
- TGI (SF-295 CNS): 54.1 µM
- TGI (MOLT-4 leukemia): 90.1 µM
- TGI (UO-31 renal): > 100 µM
- TGI (KM12 colon): > 100 µM
- TGI (SK-OV-3 ovarian): 66.2 µM
- TGI (HCT-15 colon): 42.9 µM
- TGI (HOP-62 NSCLC): > 100 µM
- TGI (SR leukemia): 68.8 µM
- TGI (NCI-H23 lung): 55 µM
- TGI (CCRF-CEM leukemia): > 76.9 µM
- TGI (IGROV1 ovarian): > 100 µM
- TGI (SNB-75 CNS): 78.5 µM
- TGI (M19-MEL melanoma): 53.1 µM
- TGI (HOP-92 NSCLC): 90.9 µM
- TGI (A498 renal): 64.1 µM
- TGI (HCC-2998 colon): > 79 µM
- TGI (HCT-116 colon): 33 µM
- TGI (A549 NSCLC): > 100 µM
- TGI (SK-MEL-28 melanoma): > 100 µM
- TGI (OVCAR-5 ovarian): > 100 µM
- TGI (OVCAR-8 ovarian): > 59.8 µM
- TGI (SK-MEL-5 melanoma): 75.5 µM
- TGI (EKVX NSCLC): > 100 µM
- TGI (RPMI-8226 leukemia): > 100 µM
- TGI (KM20L2 colon): 53.7 µM
- TGI (TK-10 renal): > 100 µM
- TGI (SF-268 CNS): > 100 µM
- TGI (ACHN renal): > 100 µM
- TGI (NCI-H522 lung): 54.5 µM
- TGI (M14 melanoma): 36.7 µM
- TGI (NCI-H460 lung): > 100 µM
- TGI (SW-620 colon): 33.6 µM
- TGI (DMS 114 small cell lung): 24 µM
- TGI (K-562 leukemia): > 49.9 µM
- TGI (UACC-257 melanoma): > 75.3 µM
- TGI (LXFL 529 NSCLC): 48.7 µM
- TGI (OVCAR-3 ovarian): 99.6 µM
- TGI (OVCAR-4 ovarian): 44.7 µM
- TGI (U251 CNS): > 73.8 µM
- TGI (NCI-H226 lung): 72.6 µM
- TGI (UACC-62 melanoma): 83.4 µM
